Source: ChEMBL document CHEMBL3046841, “The synthesis and screening of the antimicrobial activity of some novel 3-(furan-2-yl)-1-(aryl)-3-(phenylthio) propan-1-one derivatives” (2011)
In brackets after ≈: the same amount, converted by molar mass.

Experiments:
Format in all cases: functional
[1] = system: Pseudomonas aeruginosa; experiment: Antimicrobial activity against Pseudomonas aeruginosa ATCC 27859 after 24 hr by serial microdilution method; settings: ATCC 27859, 24 h
[2] = system: Salmonella enteritidis; experiment: Antimicrobial activity against Salmonella enterica subsp. enterica serovar Enteritidis ATCC 13076 after 24 hr by serial microdilution method; settings: ATCC 13076, 24 h
[3] = system: Pseudomonas aeruginosa; experiment: Antimicrobial activity against Pseudomonas aeruginosa ATCC 27859 at 105 ug/disk after 24 hr by disk diffusion method; settings: ATCC 27859, 24 h, read-out: IZ
[4] = system: Proteus vulgaris; experiment: Antimicrobial activity against Proteus vulgaris KUEN 1329 after 24 hr by serial microdilution method; settings: KUEN 1329, 24 h
[5] = system: Cyberlindnera jadinii; experiment: Antimicrobial activity against Cyberlindnera jadinii KUEN 1031 at 105 ug/disc after 48 hr by disk diffusion method; settings: Williopsis jadinii, KUEN 1031, 48 h; read-out: IZ
[6] = system: Candida albicans; experiment: Antimicrobial activity against Candida albicans ATCC 1213 by serial microdilution method
[7] = system: Proteus vulgaris; experiment: Antimicrobial activity against Proteus vulgaris KUEN 1329 at 105 ug/disk after 24 hr by disk diffusion method; settings: KUEN 1329, 24 h, read-out: IZ
[8] = system: Staphylococcus aureus; experiment: Antimicrobial activity against Staphylococcus aureus ATCC 29213 at 105 ug/disc after 24 hr by disk diffusion method; settings: ATCC 29213, 24 h, read-out: IZ
[9] = system: Escherichia coli; experiment: Antimicrobial activity against Escherichia coli 111 after 24 hr by serial microdilution method; settings: Escherichia coli, 111, 24 h
[10] = system: Bacillus cereus; experiment: Antimicrobial activity against Bacillus cereus DSM 4312 at 105 ug/disk after 24 hr by disk diffusion method; settings: DSM 4312, 24 h, read-out: IZ
[11] = system: Staphylococcus aureus; experiment: Antimicrobial activity against Staphylococcus aureus ATCC 29213 after 24 hr by serial microdilution method; settings: ATCC 29213, 24 h
[12] = system: Pseudomonas aeruginosa; experiment: Antimicrobial activity against Pseudomonas aeruginosa ATCC 9027 after 24 hr by serial microdilution method; settings: ATCC 9027, 24 h
[13] = system: Streptococcus pyogenes; experiment: Antimicrobial activity against Streptococcus pyogenes ATCC 176 after 24 hr by serial microdilution method; settings: ATCC 176, 24 h
[14] = system: Streptococcus pyogenes; experiment: Antimicrobial activity against Streptococcus pyogenes ATCC 176 at 105 ug/disc after 24 hr by disc diffusion method; settings: ATCC 176, 24 h, read-out: IZ
[15] = system: Candida albicans; experiment: Antimicrobial activity against Candida albicans ATCC 1213 at 105 ug/disk after 48 hr by disk diffusion method; settings: ATCC 1213, 48 h, read-out: IZ
[16] = system: Cyberlindnera jadinii; experiment: Antimicrobial activity against Cyberlindnera jadinii KUEN 1031 serial microdilution method; settings: Williopsis jadinii
[17] = system: Pseudomonas aeruginosa; experiment: Antimicrobial activity against Pseudomonas aeruginosa ATCC 9027 at 105 ug/disk after 24 hr by disk diffusion method; settings: ATCC 9027, 24 h, read-out: IZ
[18] = system: Bacillus subtilis; experiment: Antimicrobial activity against Bacillus subtilis ATCC 6633 after 24 hr by serial microdilution method; settings: ATCC 6633, 24 h
[19] = system: Bacillus subtilis; experiment: Antimicrobial activity against Bacillus subtilis ATCC 6633 at 105 ug/disk after 24 hr by disk diffusion method; settings: ATCC 6633, 24 h, read-out: IZ
[20] = system: Salmonella enteritidis; experiment: Antimicrobial activity against Salmonella enterica subsp. enterica serovar Enteritidis ATCC 13076 at 105 ug/disk after 24 hr by disk diffusion method; settings: ATCC 13076, 24 h, read-out: IZ
[21] = system: Bacillus cereus; experiment: Antimicrobial activity against Bacillus cereus DSM 4312 after 24 hr by serial microdilution method; settings: DSM 4312, 24 h
[22] = system: Escherichia coli; experiment: Antimicrobial activity against Escherichia coli 111 at 105 ug/disk after 24 hr by disk diffusion method; settings: Escherichia coli, 111, 24 h; read-out: IZ

O=C(CC(Sc1ccccc1)c1ccco1)c1cccc(Cl)c1 (stereo not drawn)
MIC [1]: 62.5 µg/mL (≈ 182 µM)
MIC [2]: 15.6 µg/mL (≈ 45.6 µM)
zone of inhibition at 105 µg/disc [3]: 16 mm
MIC [4]: 31.2 µg/mL (≈ 91.1 µM)
zone of inhibition at 105 µg/disc [5]: 15 mm
MIC [6]: 15.6 µg/mL (≈ 45.6 µM)
zone of inhibition at 105 µg/disc [7]: 17 mm
zone of inhibition at 105 µg/disc [8]: 16 mm
MIC [9]: > 125 µg/mL
zone of inhibition at 105 µg/disc [10]: 11 mm
MIC [11]: 31.2 µg/mL (≈ 91.1 µM)
MIC [12]: 15.6 µg/mL (≈ 45.6 µM)
MIC [13]: 31.2 µg/mL (≈ 91.1 µM)
zone of inhibition at 105 µg/disc [14]: 14 mm
zone of inhibition at 105 µg/disc [15]: 17 mm
MIC [16]: 15.6 µg/mL (≈ 45.6 µM)
zone of inhibition at 105 µg/disc [17]: 15 mm
MIC [18]: 31.2 µg/mL (≈ 91.1 µM)
zone of inhibition at 105 µg/disc [19]: 14 mm
zone of inhibition at 105 µg/disc [20]: 19 mm
MIC [21]: 31.2 µg/mL (≈ 91.1 µM)

O=C(CC(Sc1ccccc1)c1ccco1)c1ccccc1Cl (stereo not drawn)
MIC [1]: 125 µg/mL (≈ 365 µM)
MIC [2]: 15.6 µg/mL (≈ 45.6 µM)
zone of inhibition at 105 µg/disc [3]: 14 mm
MIC [4]: 31.2 µg/mL (≈ 91.1 µM)
zone of inhibition at 105 µg/disc [5]: 13 mm
MIC [6]: 15.6 µg/mL (≈ 45.6 µM)
zone of inhibition at 105 µg/disc [7]: 16 mm
zone of inhibition at 105 µg/disc [8]: 18 mm
MIC [9]: > 125 µg/mL
zone of inhibition at 105 µg/disc [10]: 11 mm
MIC [11]: 7.81 µg/mL (≈ 22.8 µM)
MIC [12]: 31.2 µg/mL (≈ 91.1 µM)
MIC [13]: 15.6 µg/mL (≈ 45.6 µM)
zone of inhibition at 105 µg/disc [15]: 16 mm
MIC [16]: 125 µg/mL (≈ 365 µM)
zone of inhibition at 105 µg/disc [17]: 14 mm
MIC [18]: 31.2 µg/mL (≈ 91.1 µM)
zone of inhibition at 105 µg/disc [19]: 15 mm
zone of inhibition at 105 µg/disc [20]: 18 mm
MIC [21]: 31.2 µg/mL (≈ 91.1 µM)

O=C(CC(Sc1ccccc1)c1ccco1)c1ccccc1Br (stereo not drawn)
MIC [1]: 31.2 µg/mL (≈ 80.7 µM)
MIC [2]: > 125 µg/mL
zone of inhibition at 105 µg/disc [22]: 10 mm
zone of inhibition at 105 µg/disc [3]: 16 mm
MIC [4]: 62.5 µg/mL (≈ 161 µM)
zone of inhibition at 105 µg/disc [5]: 15 mm
MIC [6]: > 125 µg/mL
zone of inhibition at 105 µg/disc [7]: 16 mm
zone of inhibition at 105 µg/disc [8]: 17 mm
MIC [9]: 62.5 µg/mL (≈ 161 µM)
zone of inhibition at 105 µg/disc [10]: 12 mm
MIC [11]: 7.81 µg/mL (≈ 20.2 µM)
MIC [12]: > 125 µg/mL
MIC [13]: > 125 µg/mL
zone of inhibition at 105 µg/disc [14]: 13 mm
zone of inhibition at 105 µg/disc [15]: 17 mm
MIC [16]: > 125 µg/mL
zone of inhibition at 105 µg/disc [17]: 15 mm
MIC [18]: 31.2 µg/mL (≈ 80.7 µM)
zone of inhibition at 105 µg/disc [19]: 15 mm
zone of inhibition at 105 µg/disc [20]: 15 mm
MIC [21]: 31.2 µg/mL (≈ 80.7 µM)
